“Also recorded” adds a separate entry of the source.
Legend:
Type in all cases: in vivo, mouse
[1] = system: ACAT; assay: Cholesterol determinations in hAPP mice treated two months with CP-113,818 pellets; conditions: 7.2 mg/kg/day, 57 days
Source text: hAPP transgenic mice overexpress human APP751 with the London (V717I) and Swedish (K670M/N671L) mutations under the regulatory control of the neuron specific murine (m)Thy-1 promoter (mThy-1-hAPP751; heterozygous with respect to the transgene, on a C57BL/6 F3 background) (Rockenstein et al., 2001). The hAPP colony was sustained by crossing transgenic APP751 with C57BL/6 (Harlan Winkelman, Germany). Corresponding littermates were used for control studies. All mice were housed according to standard animal care protocols, fed ad libitum with standard chow diet, and maintained in a pathogen-free environment in single ventilated cages at JSW Research. The transgenic status of each animal was confirmed by real time PCR of tail snips using specific primers and the appropriate hybridization probe. A modified Irvine test was regularly performed prior to the experiment to assess the neurological status of the animals; those showing disturbances were excluded from the experiments. Mice were then randomly assigned to different treatment groups and individually coded. Investigators performing behavioral testing, biochemical analyzes and histomorphological evaluations of the brains were blinded in terms of group allocation of the mice. […]
Animals were sacrificed the day after the last MWM training, on day 57 of treatment. […] Hematoxylin and eosin stained 6-8 um sections were analyzed for evidence of CP-113,818 toxicity.
Tissues were homogenized in the presence of trypsin (10 mg/ml) in a Dounce homogenizer on ice. Protein concentration of the homogenate was determined using the BCA protein assay kit (Pierce). […] Dried lipid pellets were dissolved in water and total amount of cholesterol was determined with an enzymatic assay (Sigma; cat. no. 402-20). As control, free cholesterol was determined with a different enzymatic assay (R-Biopharm GmbH, Darmstadt, Germany; cat. no. E0139050). The amount of cholesteryl-esters was calculated by subtracting free from total cholesterol. […]

[2] = system: synaptophysin; assay: Synaptophysin immunoreactivity in hippocampal CA1 region; conditions: CA1 layer of hippocampus, hAPP mice, vs placebo
Method: For histomorphological analyses, 8 to 15 histological sections (10 μm) were prepared from one hemisphere of 12 animals (6 placebo, 6 CP-113,818; 3 male, 3 female per group). Number and surface area of amyloid plaques were evaluated in both cortex and hippocampus. 6E10 (Signet; 1:5000; monoclonal) as primary antibody, and Cy™3 fluorescent goat anti-mouse IgG as secondary antibody (Jackson Immuno Research) were used for Aβ staining. Sections of the same brains were also used for synaptophysin staining (Chemicon; 1:5000; monoclonal). Synaptophysin immunoreactive spots were counted by light microscopy in the hippocampal CA1 region. The estimation of immunohistochemical reactions was done by computer-assisted quantification (IMAGE PRO PLUS, Media Cybernetics).

[3] = system: Aβ1-40 and Aβ1-42; assay: Sandwich ELISA of brain Aβ1-40 and Aβ1-42 in hAPP mice
Method: For Aβ determinations, frozen hemispheres were first homogenized in TBS-buffer (5 ml) containing a protease inhibitor cocktail (Protease Inhibitor Cocktail Set I, Calbiochem) and then centrifuged at 75000 g for 1 hour, as described elsewhere (Kawarabayashi et al., 2001). Supernatants were saved for soluble Aβ analyses (see below). Pellets were resuspended and further homogenized in 70% formic acid (1 ml), followed by centrifugation at 75000 g for 1 hour. Formic acid-supernatants were neutralized with 1M TRIS (19 ml) and used for ELISA determination (insoluble Aβ). Aβ1-40 and Aβ1-42 were assayed using commercially available ELISA kits (The Genetics Company®, Switzerland). Measurements were performed at least in duplicate. Soluble Aβ ELISAs: secreted Aβ1-40 and Aβ1-42 levels in the TBS homogenate were analyzed by a sandwich ELISA system as described previously using the following antibodies: Aβ40=MM27 33.1.1 capture, MM32 13.1.1 for detection; Aβ42=MM27 33.1.1 capture, MM26 4.1.3 for detection (Suzuki et al., 1994).
We next used a sandwich enzyme-linked immunosorbent assay (ELISA) to measure Aβ1-40 and Aβ1-42 levels in 70% formic acid extracts from brain homogenates (“insoluble” Aβ) and in the initial TBS fraction of the same homogenates (soluble Aβ). Similar to plaque load, Aβ levels varied widely, as expected in transgenic mice specifically at early stages of pathology (Johnson-Wood et al., 1997; Kawarabayashi et al., 2001). Treatment with CP-113,818 decreased Aβ1-40 and Aβ1-42 in the formic acid fraction to almost undetectable concentrations. […] Since brain extracts were obtained from entire hemispheres including cortices and hippocampi, the difference between male and female Aβ levels at this age was accentuated by the slowly developing amyloid pathology in male hippocampi (see FIG. 3B). When analyzed according to gender, only female “insoluble” Aβ was sufficiently elevated to obtain a highly significant decrease by CP-113,818 treatment, with Aβ1-40 down by 96% (p<0.014) and Aβ1-42 down by 90% (p<0.014; FIG. 5A). […] This decrease was statistically significant in both genders. Soluble Aβ1-40 levels were close to the limit of detection, but a trend toward decrease was observed (20%) in all animals, significant only in males (FIG. 5B).

[4] = female hAPP mice, brain formic acid extracts
[5] = hAPP mice, all animals, brain formic acid extracts

## CCCCCCCC[C@H](SCCCCCC)C(=O)Nc1c(SC)cc(C)nc1SC [CP-113,818]
[1]
  decrease of liver cholesterol: 34%
  decrease of liver cholesteryl-esters: 87%
  decrease of serum cholesterol: 35%
[2]
  synaptic density as synaptophysin immunoreactivity: did not induce significant changes; also recorded: unchanged
[3]; [4]
  decrease in insoluble Aβ1-40, females: 96%
  decrease in insoluble Aβ1-42, females: 90%
[3]; hAPP mice, TBS fraction lacking detergents
  reduction of soluble Aβ1-42: 34%
[3]; [5]
  decrease in insoluble Aβ1-40: 92%
  decrease in insoluble Aβ1-42: 83%
[3]; hAPP mice, insoluble Aβ
  Aβ1-42/Aβ1-40 ratio: no significant difference
[3]; transgenic mice
  decrease of "insoluble" Aβ (summary): 83-99%
